Source: patent US8993622B2, “Antiviral compounds” (Eirium AB, priority 2010, dated 2015)

System: Ad5
Test: microbe, parasite or virus in culture
Type: cell-based, human adenovirus
Conditions: unidentified adenovirus, A549

SMILES | EC50 [µM]
O=C(Nc1ccccc1C(=O)Nc1ccccc1C(=O)O)c1ccc(F)cc1 [Compound 17j, 2-[2-(4-Fluorobenzoylamino)-benzoylamino]benzoic acid] | 3.5
O=C(Nc1cc(Cl)ccc1C(=O)Nc1ccccc1C(=O)O)c1ccccc1F [Compound 35f, 2-[4-chloro-2-(2-fluorobenzoylamino)-benzoylamino]benzoic acid] | 4.14
O=C(Nc1ccc(Cl)cc1C(=O)Nc1ccccc1C(=O)O)c1ccccc1F [Compound 35g, 2-[5-chloro-2-(2-fluorobenzoylamino)-benzoylamino]benzoic acid] | 0.68
COc1ccc(C(=O)Nc2ccccc2C(=O)O)c(NC(=O)c2ccccc2F)c1 [Compound 35h, 2-[4-methoxy-2-(2-fluorobenzoylamino)-benzoylamino]benzoic acid] | 1.5
COc1ccc(NC(=O)c2ccccc2F)c(C(=O)Nc2ccccc2C(=O)O)c1 [Compound 35i, 2-[5-methoxy-2-(2-fluorobenzoylamino)-benzoylamino]benzoic acid] | 1.4

Same assay, conditions: unidentified adenovirus, A549, read-out: % Inh. at 5 μM

SMILES | inhibition at 5 µM [%]
CC(=O)Nc1ccccc1C(=O)Nc1ccccc1C(=O)O [Compound 17a, 2-[2-(Acetylamino)benzoylamino]benzoic acid] | 4 ± 11
CS(=O)(=O)Nc1ccccc1C(=O)Nc1ccccc1C(=O)O [Compound 17b, 2-[2-(Methanesulfonylamino)benzoylamino]benzoic acid] | 0
Cc1ccc(S(=O)(=O)Nc2ccccc2C(=O)Nc2ccccc2C(=O)O)cc1 [Compound 17c, 2-[2-(p-Toluenesulfonylamino)benzoylamino]benzoic acid] | 2 ± 24
CC(C)(C)C(=O)Nc1ccccc1C(=O)Nc1ccccc1C(=O)O [Compound 17d, 2-[2-(Trimethylacetylamino)benzoylamino]benzoic acid] | 45 ± 7
O=C(O)CCC(=O)Nc1ccccc1C(=O)Nc1ccccc1C(=O)O [Compound 17f, 2-[2-(4-Carboxybutanoylamido)benzoyl]aminobenzoic acid] | 0
O=C(Nc1ccccc1C(=O)Nc1ccccc1C(=O)O)c1cccc(F)c1 [Compound 17i, 2-[2-(3-Fluorobenzoylamino)-benzoylamino]benzoic acid] | 41 ± 32
O=C(Nc1ccccc1C(=O)Nc1ccccc1C(=O)O)c1ccc(F)cc1 [Compound 17j, 2-[2-(4-Fluorobenzoylamino)-benzoylamino]benzoic acid] | 76 ± 10
O=C(Cc1ccccc1)Nc1ccccc1C(=O)Nc1ccccc1C(=O)O [Compound 17k, 2-[2-(Phenylacetylamino)benzoylamino]benzoic acid] | 32 ± 19
O=C(O)Cc1ccccc1NC(=O)c1ccccc1NC(=O)c1ccccc1 [Compound 23, 2-[2-(benzoylamino)benzoylamino]phenylacetic acid] | 0
O=C(Cc1ccccc1NC(=O)c1ccccc1)Nc1ccccc1C(=O)O [Compound 28, 2-[2-(benzoylamino)phenylacetylamino]benzoic acid] | 0
O=C(Nc1ccccc1C(=O)Nc1cc(Cl)ccc1C(=O)O)c1ccccc1F [Compound 35a, 2-[2-(2-fluorobenzoylamino)-benzoylamino]-4-chlorobenzoic acid] | 0
O=C(Nc1ccccc1C(=O)Nc1ccc(Cl)cc1C(=O)O)c1ccccc1F [Compound 35b, 2-[2-(2-fluorobenzoylamino)benzoylamino]-5-chlorobenzoic acid] | 0
COc1ccc(C(=O)O)c(NC(=O)c2ccccc2NC(=O)c2ccccc2F)c1 [Compound 35c, 2-[2-(2-fluorobenzoylamino)-benzoylamino]-4-methoxybenzoic acid] | 79 ± 21
COc1ccc(NC(=O)c2ccccc2NC(=O)c2ccccc2F)c(C(=O)O)c1 [Compound 35d, 2-[2-(2-fluorobenzoylamino)-benzoylamino]-5-methoxybenzoic acid] | 28 ± 20
O=C(Nc1ccccc1C(=O)Nc1cc(F)c(F)cc1C(=O)O)c1ccccc1F [Compound 35e, 2-[2-(2-fluorobenzoylamino)-benzoylamino]-4,5-difluorobenzoic acid] | 0
O=C(Nc1cc(Cl)ccc1C(=O)Nc1ccccc1C(=O)O)c1ccccc1F [Compound 35f, 2-[4-chloro-2-(2-fluorobenzoylamino)-benzoylamino]benzoic acid] | 57 ± 5
O=C(Nc1ccc(Cl)cc1C(=O)Nc1ccccc1C(=O)O)c1ccccc1F [Compound 35g, 2-[5-chloro-2-(2-fluorobenzoylamino)-benzoylamino]benzoic acid] | 89 ± 2
COc1ccc(C(=O)Nc2ccccc2C(=O)O)c(NC(=O)c2ccccc2F)c1 [Compound 35h, 2-[4-methoxy-2-(2-fluorobenzoylamino)-benzoylamino]benzoic acid] | 92 ± 3
COc1ccc(NC(=O)c2ccccc2F)c(C(=O)Nc2ccccc2C(=O)O)c1 [Compound 35i, 2-[5-methoxy-2-(2-fluorobenzoylamino)-benzoylamino]benzoic acid] | 91 ± 6

Same assay, conditions: unidentified adenovirus, A549, read-out: % Inh. at 15 μM

SMILES | inhibition at 15 µM [%]
CC(=O)Nc1ccccc1C(=O)Nc1ccccc1C(=O)O [Compound 17a, 2-[2-(Acetylamino)benzoylamino]benzoic acid] | 24 ± 14
CS(=O)(=O)Nc1ccccc1C(=O)Nc1ccccc1C(=O)O [Compound 17b, 2-[2-(Methanesulfonylamino)benzoylamino]benzoic acid] | 23 ± 12
Cc1ccc(S(=O)(=O)Nc2ccccc2C(=O)Nc2ccccc2C(=O)O)cc1 [Compound 17c, 2-[2-(p-Toluenesulfonylamino)benzoylamino]benzoic acid] | 8 ± 35
CC(C)(C)C(=O)Nc1ccccc1C(=O)Nc1ccccc1C(=O)O [Compound 17d, 2-[2-(Trimethylacetylamino)benzoylamino]benzoic acid] | 52 ± 18
O=C(O)CCC(=O)Nc1ccccc1C(=O)Nc1ccccc1C(=O)O [Compound 17f, 2-[2-(4-Carboxybutanoylamido)benzoyl]aminobenzoic acid] | 0
O=C(Nc1ccccc1C(=O)Nc1ccccc1C(=O)O)c1cccc(F)c1 [Compound 17i, 2-[2-(3-Fluorobenzoylamino)-benzoylamino]benzoic acid] | 0
O=C(Nc1ccccc1C(=O)Nc1ccccc1C(=O)O)c1ccc(F)cc1 [Compound 17j, 2-[2-(4-Fluorobenzoylamino)-benzoylamino]benzoic acid] | 95 ± 1
O=C(Cc1ccccc1)Nc1ccccc1C(=O)Nc1ccccc1C(=O)O [Compound 17k, 2-[2-(Phenylacetylamino)benzoylamino]benzoic acid] | 21 ± 12
O=C(O)Cc1ccccc1NC(=O)c1ccccc1NC(=O)c1ccccc1 [Compound 23, 2-[2-(benzoylamino)benzoylamino]phenylacetic acid] | 0
O=C(Cc1ccccc1NC(=O)c1ccccc1)Nc1ccccc1C(=O)O [Compound 28, 2-[2-(benzoylamino)phenylacetylamino]benzoic acid] | 0
O=C(Nc1ccccc1C(=O)Nc1cc(Cl)ccc1C(=O)O)c1ccccc1F [Compound 35a, 2-[2-(2-fluorobenzoylamino)-benzoylamino]-4-chlorobenzoic acid] | 61
O=C(Nc1ccccc1C(=O)Nc1ccc(Cl)cc1C(=O)O)c1ccccc1F [Compound 35b, 2-[2-(2-fluorobenzoylamino)benzoylamino]-5-chlorobenzoic acid] | 0
COc1ccc(C(=O)O)c(NC(=O)c2ccccc2NC(=O)c2ccccc2F)c1 [Compound 35c, 2-[2-(2-fluorobenzoylamino)-benzoylamino]-4-methoxybenzoic acid] | 95 ± 22
COc1ccc(NC(=O)c2ccccc2NC(=O)c2ccccc2F)c(C(=O)O)c1 [Compound 35d, 2-[2-(2-fluorobenzoylamino)-benzoylamino]-5-methoxybenzoic acid] | 78 ± 3
O=C(Nc1ccccc1C(=O)Nc1cc(F)c(F)cc1C(=O)O)c1ccccc1F [Compound 35e, 2-[2-(2-fluorobenzoylamino)-benzoylamino]-4,5-difluorobenzoic acid] | 0
O=C(Nc1cc(Cl)ccc1C(=O)Nc1ccccc1C(=O)O)c1ccccc1F [Compound 35f, 2-[4-chloro-2-(2-fluorobenzoylamino)-benzoylamino]benzoic acid] | 78 ± 2
O=C(Nc1ccc(Cl)cc1C(=O)Nc1ccccc1C(=O)O)c1ccccc1F [Compound 35g, 2-[5-chloro-2-(2-fluorobenzoylamino)-benzoylamino]benzoic acid] | 91 ± 2
COc1ccc(C(=O)Nc2ccccc2C(=O)O)c(NC(=O)c2ccccc2F)c1 [Compound 35h, 2-[4-methoxy-2-(2-fluorobenzoylamino)-benzoylamino]benzoic acid] | 89 ± 6
COc1ccc(NC(=O)c2ccccc2F)c(C(=O)Nc2ccccc2C(=O)O)c1 [Compound 35i, 2-[5-methoxy-2-(2-fluorobenzoylamino)-benzoylamino]benzoic acid] | 97 ± 1

System: cells
Test: Cellular toxicity of select compounds (% dead cells, CC50)
Type: cell-based
Conditions: 30 μM, 24 h

SMILES | Toxicity at 30 μM (% dead cells after 24 h) [%]
O=C(Nc1ccccc1C(=O)Nc1ccccc1C(=O)O)c1ccc(F)cc1 [Compound 17j, 2-[2-(4-Fluorobenzoylamino)-benzoylamino]benzoic acid] | 14 ± 10
O=C(Nc1cc(Cl)ccc1C(=O)Nc1ccccc1C(=O)O)c1ccccc1F [Compound 35f, 2-[4-chloro-2-(2-fluorobenzoylamino)-benzoylamino]benzoic acid] | 14 ± 5
O=C(Nc1ccc(Cl)cc1C(=O)Nc1ccccc1C(=O)O)c1ccccc1F [Compound 35g, 2-[5-chloro-2-(2-fluorobenzoylamino)-benzoylamino]benzoic acid] | 11 ± 7
COc1ccc(C(=O)Nc2ccccc2C(=O)O)c(NC(=O)c2ccccc2F)c1 [Compound 35h, 2-[4-methoxy-2-(2-fluorobenzoylamino)-benzoylamino]benzoic acid] | 10 ± 15
COc1ccc(NC(=O)c2ccccc2F)c(C(=O)Nc2ccccc2C(=O)O)c1 [Compound 35i, 2-[5-methoxy-2-(2-fluorobenzoylamino)-benzoylamino]benzoic acid] | 18 ± 12

Same assay, conditions: 60 μM, 24 h

SMILES | Toxicity at 60 μM (% dead cells after 24 h) [%]
O=C(Nc1ccccc1C(=O)Nc1ccccc1C(=O)O)c1ccc(F)cc1 [Compound 17j, 2-[2-(4-Fluorobenzoylamino)-benzoylamino]benzoic acid] | 10 ± 10
O=C(Nc1cc(Cl)ccc1C(=O)Nc1ccccc1C(=O)O)c1ccccc1F [Compound 35f, 2-[4-chloro-2-(2-fluorobenzoylamino)-benzoylamino]benzoic acid] | 25 ± 8
O=C(Nc1ccc(Cl)cc1C(=O)Nc1ccccc1C(=O)O)c1ccccc1F [Compound 35g, 2-[5-chloro-2-(2-fluorobenzoylamino)-benzoylamino]benzoic acid] | 24 ± 9
COc1ccc(C(=O)Nc2ccccc2C(=O)O)c(NC(=O)c2ccccc2F)c1 [Compound 35h, 2-[4-methoxy-2-(2-fluorobenzoylamino)-benzoylamino]benzoic acid] | 18 ± 15
COc1ccc(NC(=O)c2ccccc2F)c(C(=O)Nc2ccccc2C(=O)O)c1 [Compound 35i, 2-[5-methoxy-2-(2-fluorobenzoylamino)-benzoylamino]benzoic acid] | 28 ± 12
